According to PubChem BioAssay (NCI):
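Compound exposure: 48 hours, 5 concentrations, 96-well plates. Definition used: TGI = concentration required for complete inhibition of growth.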

How the values were obtained:
Test in all cases: NCI-60 cell line screen, 48 h
[1] = tested on: 786-0 renal
[2] = tested on: BT-549 breast
[3] = tested on: EKVX NSCLC
[4] = tested on: HCT-116 colon
[5] = tested on: NCI-H23 lung
[6] = tested on: NCI-H522 lung
[7] = tested on: OVCAR-4 ovarian
[8] = tested on: OVCAR-8 ovarian
[9] = tested on: SF-539 CNS
[10] = tested on: SK-MEL-2 melanoma
[11] = tested on: SNB-19 CNS
[12] = tested on: U251 CNS
[13] = tested on: UACC-62 melanoma
[14] = tested on: SK-OV-3 ovarian

| Compound | TGI [1] [µM] | TGI [2] [µM] | TGI [3] [µM] | TGI [4] [µM] | TGI [5] [µM] | TGI [6] [µM] | TGI [7] [µM] | TGI [8] [µM] | TGI [9] [µM] | TGI [10] [µM] | TGI [11] [µM] | TGI [12] [µM] | TGI [13] [µM] | TGI [14] [µM] |
| --- | --- | --- | --- | --- | --- | --- | --- | --- | --- | --- | --- | --- | --- | --- |
| CC[C@@]1(O)C(=O)OCc2c1cc1n(c2=O)Cc2c-1nc1ccccc1c2/C=N\NC(=O)C(C)N (some centres undefined) | 2 | > 22.4 | > 100 | 23.6 | 0.847 | 25.8 | > 100 | 5.26 | < 0.0282 | > 100 | 58.7 | 31.6 | 0.305 |  |
| CC1(C)CC[C@]2(C(=O)O)CC[C@]3(C)C(=CC[C@@H]4[C@@]5(C)CC[C@H](OC6OC(CO)C(O)C(O)C6OC6OC(CO)C(O)C(O)C6O)C(C)(C)[C@@H]5CC[C@]43C)[C@@H]2C1 (some centres undefined) | 30.1 | 36.2 | 35.4 | 31.9 | 53.7 | 38 | 30.5 | 35.2 |  | 2.48 | 32.8 | 16.4 | 34.2 | 31.9 |
| CN1CCN(c2ccc(-n3cc(C(=O)O)c(=O)c4cc(F)c(N5CCN(C)CC5)cc43)nc2)CC1 | > 100 | > 100 | > 100 | > 100 | > 100 | > 100 | > 100 | > 100 | > 100 |  | > 100 | > 100 | > 100 | > 100 |
| C=C(C(=O)O)[C@@H]1C[C@@H]2O[C@H]1CC(C)=CCC/C(C)=C/CC[C@@]2(C)O | > 100 | > 100 | > 100 | > 100 |  | > 100 | > 100 | > 100 | > 100 | > 100 | > 100 | > 100 | > 100 |  |
| CN(C)/C=N/S(=O)(=O)c1nn2c(C=O)c(-c3ccc(-c4ccc([N+](=O)[O-])cc4)o3)nc2s1 | 2.47 | 8.05 | 21.1 | 3.68 | 16.2 |  | > 39.3 | > 38.8 | 11.8 | 25.9 | 45.5 | > 30.2 | 16.8 | > 71.5 |
| c1ccc2c(c1)C(=Nc1ccc(N=C3c4ccccc4-c4ccccc43)cc1)c1ccccc1-2 | > 100 | > 100 | > 100 | > 100 | > 100 | > 100 | > 100 | > 100 |  | > 100 | > 100 | > 100 | > 100 | > 100 |
| CCN(CC)c1nc(N(C)C)c2cc(OC)ccc2n1 | 86.2 | > 100 | > 100 | > 100 | > 100 | 66.9 | > 100 | > 100 | 55.5 | > 100 | > 100 | > 100 | > 100 |  |
| C[C@@H]1OC(=O)/C(=C\N(C)C)[C@H]2CC(=O)N(CCc3cn(S(=O)(=O)C(F)(F)F)c4ccccc34)C[C@H]12 | > 100 | > 100 | > 100 | > 100 | > 100 | > 100 | > 100 |  | > 100 | > 100 | > 100 | > 100 |  | > 100 |
| Cc1n[nH]c(=O)n1N1C(=O)c2ccccc2C1=O | > 100 | > 100 | > 100 | > 100 | > 100 |  | > 100 | > 100 | > 100 | > 100 | > 100 | > 100 | > 100 |  |
| Cc1cc(C#N)c(Nc2c(C)cccc2[N+](=O)[O-])s1 | 89.9 | 80.6 | > 100 | > 100 | > 100 | 73.6 | > 100 | > 100 | > 100 |  | > 100 | > 100 | > 100 | > 100 |
| CCNCCNC(=O)c1ccc(Br)cc1 | > 100 | > 100 | > 100 |  | > 100 |  | > 100 | > 100 | > 100 |  | > 100 | > 100 | > 100 | > 100 |
| Cc1nc(C)c(N2CCN(C#N)CC2)c(=O)[nH]1 | > 100 | > 100 | > 100 | > 100 | > 100 | > 100 | > 100 | > 100 | > 100 |  | > 100 | > 100 | > 100 | > 100 |
| CC(=O)OCc1cn(S(=O)(=O)c2ccc(C)cc2)cn1 | > 100 | > 100 | > 100 | > 100 | > 100 | > 100 | > 100 | > 100 | > 100 |  | > 100 | > 100 | > 100 | > 100 |
| Cc1cc(-c2nc3cc(F)c(F)cc3s2)ccc1N | > 100 | > 100 | > 100 | > 100 | > 100 | > 100 | > 100 | > 100 |  | > 100 | > 100 | > 100 | > 100 | > 100 |
| O=C1O[C@H]2[C@@H]3OC(=O)c4cc(O)c(O)c(O)c4-c4c(cc(O)c(O)c4O)C(=O)OC[C@H]2O[C@@H](OC(=O)c2cc(O)c(O)c(O)c2)[C@@H]3OC(=O)c2cc(O)c(O)c3c2[C@@H]2C1=CC(=O)C(O)(O)C2(O)O3 (some centres undefined) | 39.8 | > 100 | > 100 | 32 | > 100 | 82.9 | 39.4 | 40.5 |  | > 100 | > 100 | 33.5 | > 100 | > 100 |
| CCCCCCCCCCCCP(=O)(O)OCC(N)C(=O)O (centres undefined) | > 100 | > 100 | > 100 | 30.3 | > 100 | > 100 | > 100 | > 100 | 47.4 | 91.9 | 44.7 | 24.8 |  | 73.3 |
| NC(CCCCNC(=O)C(Cc1ccccc1)NC(=O)OCc1ccccc1)C(=O)NC(CCCCNC(=O)C(Cc1ccccc1)NC(=O)OCc1ccccc1)C(=O)NC(CCCCNC(=O)C(Cc1ccccc1)NC(=O)OCc1ccccc1)C(=O)NC(CCCCNC(=O)C(Cc1ccccc1)NC(=O)OCc1ccccc1)C(=O)NC(CCCCNC(=O)C(Cc1ccccc1)NC(=O)OCc1ccccc1)C(=O)NC(CCCCNC(=O)C(Cc1ccccc1)NC(=O)OCc1ccccc1)C(=O)O (centres undefined) | > 100 | > 100 |  | > 100 | > 100 | > 100 | > 100 | > 100 |  | > 100 | > 100 | > 100 | > 100 |  |

| Compound | TGI [1] [µM] | TGI [2] [µM] | TGI [3] [µM] | TGI [4] [µM] | TGI [5] [µM] | TGI [6] [µM] | TGI [7] [µM] | TGI [8] [µM] | TGI [9] [µM] | TGI [10] [µM] | TGI [11] [µM] | TGI [12] [µM] | TGI [13] [µM] | TGI [14] [µM] |
| --- | --- | --- | --- | --- | --- | --- | --- | --- | --- | --- | --- | --- | --- | --- |
| C/C(=N\Nc1nc2ccccc2o1)c1ccncn1 | 18.3 | > 100 | > 100 | > 33.6 | > 47.7 | > 32.7 | > 100 | 35.7 | > 100 | > 25.8 | > 100 | > 36.4 |  | 17.4 |
| CC(C)(C)NC1C2CCC(C)(C1O)C2(C)C (centres undefined) | > 100 | > 100 | > 100 | > 100 | > 100 |  | > 100 | > 100 | > 100 | > 100 | > 100 | > 100 | 12.5 | > 100 |
| COc1cccc(-n2c(N)c(-c3nc4cc(C(F)(F)F)ccc4s3)c3ccc([N+](=O)[O-])cc3c2=O)c1 | > 100 | > 100 | > 100 | > 100 | > 100 | > 100 | > 100 |  |  | > 100 | > 100 | > 100 | > 100 | > 100 |
| CN(C(=O)c1cccs1)C(=S)N1CCN(c2ccccc2)CC1 | > 100 | > 100 |  |  | > 100 | > 100 | > 100 | > 100 |  | > 100 | > 100 | > 100 | > 100 |  |
| N=c1oc2c(Cl)cc(Cl)cc2cc1C(=O)Nc1ccccn1 | > 100 | > 100 | > 100 | > 100 | > 100 |  | > 100 |  | > 100 | > 100 | > 100 | > 100 | 61.4 | > 100 |
| CCCCOC(=O)C1CN2C(=NC1(C(F)(F)F)C(F)(F)F)Sc1ccccc12 (centres undefined) | > 100 | > 100 | > 100 | > 100 | > 100 |  | > 100 | > 100 | > 100 | > 100 | > 100 | > 100 | > 100 | > 100 |
| CC1OC(OC2CC(O)(C(=O)CO)Cc3c(O)c4c(c(O)c32)C(=O)c2ccccc2C4=O)CC(N)C1O (centres undefined) |  | 4.03 | 1.82 | 0.407 | 0.203 | 0.1 | 3.15 | 12.4 | 0.121 |  | 0.239 | 0.188 | 0.109 | 0.142 |
| CCCCP(CCCC)(CCCC)=C(C(=O)OC)C(C(=O)OC)=C1SC(C(=O)OC)=C(C(=O)OC)S1 | 40 | 30.9 | 68.5 | 31.9 | 45.4 | 49.6 | 52.5 | 48.8 |  | 63.1 | 49 | 29.5 | 27.1 | 75.8 |
| N#CC(c1cc(Cl)ncn1)c1nc2ccccc2s1 (centres undefined) | 29.5 | 15.2 | 58.1 | 22.7 | 19.5 | 4.47 | 91 | 12.5 | 50.5 |  | 20.3 | 18.2 |  | 28.8 |
| S=C1SC(c2ccc(Cl)cc2)(c2ccc(Cl)cc2)c2ccccc21 | > 100 | > 100 | > 100 | > 100 | > 100 | > 100 | > 100 | > 100 | > 100 |  | > 100 | > 100 | > 100 | > 100 |
| COC(=O)CCC(=O)c1ccc2c(c1)CC1(C2)Cc2ccc3c(c2C1)CCCC3=O (centres undefined) | > 85.2 |  | > 100 | > 100 | > 76.5 | > 73.5 | > 74 | > 100 | 42.6 | 36.9 | > 100 | > 100 | > 100 | > 100 |
| CC(=O)OC1COC(Nn2c(=O)[nH]c3ccccc3c2=O)C(OC(C)=O)C1OC(C)=O (centres undefined) | > 100 | > 100 | > 100 | > 100 | > 100 |  |  | > 100 | > 100 | > 100 | > 100 | > 100 | > 100 | > 100 |
| CCOP(=O)(OCC)/C(C#N)=C/c1c(C)[nH]c2ccccc12 | > 100 | > 100 | > 100 | > 100 | > 100 | > 100 | > 100 | > 100 | > 100 |  | > 100 | > 100 | > 100 | > 100 |
| CCNc1ncnc2n[nH]nc12 | > 100 |  | > 100 | > 100 | > 100 | > 100 | > 100 | > 100 | > 100 | > 100 | > 100 | > 100 | > 100 | > 100 |
| COC1(C)C=NCC(C)(C)NC(=O)C(C)(OC)C=NCC(C)(C)NC1=O (centres undefined) | > 10 | > 10 | > 10 | > 10 | > 10 | > 10 | > 10 | > 10 | > 10 |  | > 10 | > 10 | > 10 | > 10 |
| COc1ccc(-c2nnc(CCCCCCCCc3nnc(-c4ccc(OC)cc4)o3)o2)cc1 | > 100 | 59 | > 100 | > 100 | > 100 | > 100 | > 100 | > 100 | > 100 | > 100 | > 100 | > 100 |  | > 100 |
